In ChEMBL document CHEMBL1121678, “Antitumor agents. 44. Bis(helenalinyl) esters and related derivatives as novel potent antileukemic agents” (1981):

Key:
Format in all cases: functional
Mus musculus [1] = experiment: Antileukemic activity of compound against the P-388 lymphocytic leukemic BDF1 male mice at 8(mg/kg)/day, administered intraperitoneally; 16.7/9.66 (Treated/control)
Mus musculus [2] = experiment: Antileukemic activity of compound against the P-388 lymphocytic leukemic BDF1 male mice at 60 mg/kg/day, administered intraperitoneally; 3.8/9.66 (Treated/control); settings: route intraperitoneal
Mus musculus [3] = experiment: In vivo antileukemic activity against P-388 lymphocytic leukemia in BDF1 male mice at 30(mg/kg)/day intraperitoneal dose expressed as T/C
Mus musculus [4] = experiment: In vivo antileukemic activity against P-388 lymphocytic leukemia in BDF1 male mice at 60 mg/kg/day intraperitoneal dose expressed as T/C
Mus musculus [5] = experiment: Antileukemic activity of compound against the P-388 lymphocytic leukemic BDF1 male mice at 2(mg/kg)/day, administered intraperitoneally; 14.5/9.66 (Treated/control)
Mus musculus [6] = experiment: In vivo antileukemic activity against P-388 lymphocytic leukemia in BDF1 male mice at 15(mg/kg)/day intraperitoneal dose expressed as T/C
Mus musculus [7] = experiment: In vivo antileukemic activity against P-388 lymphocytic leukemia in BDF1 male mice at 2(mg/kg)/day intraperitoneal dose expressed as T/C
Mus musculus [8] = experiment: In vivo antileukemic activity against P-388 lymphocytic leukemia in BDF1 male mice at 4(mg/kg)/day intraperitoneal dose expressed as T/C
Mus musculus [9] = experiment: Antileukemic activity of compound against the P-388 lymphocytic leukemic BDF1 male mice at 30(mg/kg)/day, administered intraperitoneally; 6.7/9.66 (Treated/control)
Mus musculus [10] = experiment: Antileukemic activity of compound against the P-388 lymphocytic leukemic BDF1 male mice at 15(mg/kg)/day, administered intraperitoneally; 9.8/9.66 (Treated/control)
Mus musculus [11] = experiment: In vivo antileukemic activity against P-388 lymphocytic leukemia in BDF1 male mice at 8(mg/kg)/day intraperitoneal dose expressed as T/C
Mus musculus [12] = experiment: Antileukemic activity of compound against the P-388 lymphocytic leukemic BDF1 male mice at 4(mg/kg)/day, administered intraperitoneally; 16.2/9.66 (Treated/control)
Mus musculus [13] = experiment: Antileukemic activity of compound against the P-388 lymphocytic leukemic BDF1 male mice at 8(mg/kg)/day, administered intraperitoneally; 13.7/9.66 (Treated/control)
Mus musculus [14] = experiment: Antileukemic activity of compound against the P-388 lymphocytic leukemic BDF1 male mice at 50(mg/kg)/day, administered intraperitoneally; 13.4/9.66 (Treated/control)
Mus musculus [15] = experiment: Antileukemic activity of compound against the P-388 lymphocytic leukemic BDF1 male mice at 25(mg/kg)/day, administered intraperitoneally; 17.2/9.66 (Treated/control)
Mus musculus [16] = experiment: In vivo antileukemic activity against P-388 lymphocytic leukemia in BDF1 male mice at 12.5 mg/kg/day intraperitoneal dose expressed as T/C
Mus musculus [17] = experiment: Antileukemic activity of compound against the P-388 lymphocytic leukemic BDF1 male mice at 2(mg/kg)/day, administered intraperitoneally; 11.2/9.66 (Treated/control)
Mus musculus [18] = experiment: In vivo antileukemic activity against P-388 lymphocytic leukemia in BDF1 male mice at 50(mg/kg)/day intraperitoneal dose expressed as T/C
Mus musculus [19] = experiment: Antileukemic activity of compound against the P-388 lymphocytic leukemic BDF1 male mice at 4(mg/kg)/day, administered intraperitoneally; 10.6/9.66 (Treated/control)
Mus musculus [20] = experiment: In vivo antileukemic activity against P-388 lymphocytic leukemia in BDF1 male mice at 25(mg/kg)/day intraperitoneal dose expressed as T/C
Mus musculus [21] = experiment: Antileukemic activity of compound against the P-388 lymphocytic leukemic BDF1 male mice at 12.5 mg/kg/day, administered intraperitoneally; 16.0/9.66 (Treated/control); settings: route intraperitoneal
Mus musculus [22] = experiment: Antileukemic activity of compound against the P-388 lymphocytic leukemic BDF1 male mice at 8(mg/kg)/day, administered intraperitoneally; 10.5/9.66 (Treated/control)
Mus musculus [23] = experiment: In vivo antileukemic activity against P-388 lymphocytic leukemia in BDF1 male mice at 12(mg/kg)/day intraperitoneal dose expressed as T/C
Mus musculus [24] = experiment: Antileukemic activity of compound against the P-388 lymphocytic leukemic BDF1 male mice at 15(mg/kg)/day, administered intraperitoneally; 10.8/9.66 (Treated/control)
Mus musculus [25] = experiment: Antileukemic activity of compound against the P-388 lymphocytic leukemic BDF1 male mice at 12(mg/kg)/day, administered intraperitoneally; 10.8/9.66 (Treated/control)
Mus musculus [26] = experiment: Antileukemic activity of compound against the P-388 lymphocytic leukemic BDF1 male mice at 8(mg/kg)/day, administered intraperitoneally; 11.9/9.66 (Treated/control)
Mus musculus [27] = experiment: Antileukemic activity of compound against the P-388 lymphocytic leukemic BDF1 male mice at 25(mg/kg)/day, administered intraperitoneally; 18.0/9.66 (Treated/control)

SMILES: C=C1C(=O)O[C@@H]2C[C@@H](C)[C@@H]3C=CC(=O)[C@@]3(C)[C@@H](OC(=O)CCCCC(=O)O[C@H]3[C@@H]4C(=C)C(=O)O[C@@H]4C[C@@H](C)[C@@H]4C=CC(=O)[C@]43C)[C@H]12
- Average survival (days) (Mus musculus [1]): 16.7
- Average survival (days) (Mus musculus [2]): 3.8
- T/C (Mus musculus [3]): 69%
- T/C (Mus musculus [4]): 40%
- Average survival (days) (Mus musculus [5]): 14.5
- T/C (Mus musculus [6]): 101%
- T/C (Mus musculus [7]): 150%
- T/C (Mus musculus [8]): 167%
- Average survival (days) (Mus musculus [9]): 6.7
- Average survival (days) (Mus musculus [10]): 9.8
- T/C (Mus musculus [11]): 173%
- Average survival (days) (Mus musculus [12]): 16.2

SMILES: C=C1C(=O)O[C@@H]2C[C@@H](C)[C@@H]3C=CC(=O)[C@@]3(C)[C@@H](OC(=O)CCC(=O)O[C@H]3[C@@H]4C(=C)C(=O)O[C@@H]4C[C@@H](C)[C@@H]4C=CC(=O)[C@]43C)[C@H]12
- Average survival (days) (Mus musculus [13]): 13.7
- Average survival (days) (Mus musculus [14]): 13.4
- T/C (Mus musculus [7]): 116%
- Average survival (days) (Mus musculus [15]): 17.2
- T/C (Mus musculus [16]): 166%
- Average survival (days) (Mus musculus [17]): 11.2
- T/C (Mus musculus [8]): 110%
- T/C (Mus musculus [18]): 140%
- Average survival (days) (Mus musculus [19]): 10.6
- T/C (Mus musculus [20]): 178%
- T/C (Mus musculus [11]): 168%
- Average survival (days) (Mus musculus [21]): 16

SMILES: CC1C(=O)O[C@@H]2C[C@@H](C)[C@@H]3CCC(=O)[C@@]3(C)[C@@H](O)[C@H]12 (some centres undefined)
- T/C (Mus musculus [4]): 109%
- Average survival (days) (Mus musculus [22]): 10.5

SMILES: C[C@@H]1C[C@H]2OC(=O)[C@@H](C)[C@H]2[C@H](OC(=O)CC(=O)O[C@H]2[C@@H]3[C@H](C)C(=O)O[C@@H]3C[C@@H](C)[C@@H]3C=CC(=O)[C@]32C)[C@]2(C)C(=O)C=C[C@@H]12
- T/C (Mus musculus [23]): 112%
- Average survival (days) (Mus musculus [24]): 10.8
- T/C (Mus musculus [6]): 112%
- Average survival (days) (Mus musculus [25]): 10.8
- T/C (Mus musculus [11]): 124%
- Average survival (days) (Mus musculus [26]): 11.9

SMILES: O=c1[nH]cc(F)c(=O)[nH]1 [FLUOROURACIL]
- T/C (Mus musculus [4]): 186%
- Average survival (days) (Mus musculus [27]): 18
